Patent US11780830B2, “Triazolone derivatives or salts thereof and pharmaceutical compositions comprising the same” (YUHAN CORPORATION, priority 2018, dated 2023)
Where a name gives a salt, the structure may show the parent alone.

Tests used:
Format in all cases: biochemical
[1] = target: T1, recombinant human MAO-A (monoamine oxidase-A) (Homo sapiens, UniProt P21397); assay: Activity on recombinant human MAO-A, method similar to the VAP-1 assay; conditions: substrate 0.5 mM tyramine; read-out: Inhibitory Activity (IC50, nM) MAO-A
T1 construct: purchased Sigma-Aldrich
T1 sequence (P21397 1-527): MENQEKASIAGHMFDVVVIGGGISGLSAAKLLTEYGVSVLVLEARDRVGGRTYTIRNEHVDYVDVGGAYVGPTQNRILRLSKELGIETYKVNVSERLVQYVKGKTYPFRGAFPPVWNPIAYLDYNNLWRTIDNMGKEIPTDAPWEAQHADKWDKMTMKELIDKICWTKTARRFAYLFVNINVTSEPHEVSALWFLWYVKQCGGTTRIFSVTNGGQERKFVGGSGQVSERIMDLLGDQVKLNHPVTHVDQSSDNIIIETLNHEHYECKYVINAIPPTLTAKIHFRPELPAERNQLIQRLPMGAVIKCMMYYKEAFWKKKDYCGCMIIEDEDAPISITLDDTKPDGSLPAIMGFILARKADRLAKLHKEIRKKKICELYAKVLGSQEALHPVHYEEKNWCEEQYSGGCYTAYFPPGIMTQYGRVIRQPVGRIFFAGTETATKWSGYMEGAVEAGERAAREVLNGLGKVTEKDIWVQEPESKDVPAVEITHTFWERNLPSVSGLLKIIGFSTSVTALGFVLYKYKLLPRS
Method in brief: (§1)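 Enzyme preincubated with compound 30 min at 37 °C in 50 mM sodium phosphate pH 7.4, final DMSO below 1%. Substrate was 0.5 mM tyramine for MAO-A and 1 mM benzylamine for MAO-B, with 200 uM Amplex Red and 1 U/mL HRP. H2O2-coupled resorufin fluorescence (ex 544/em 590) followed over 1–2 h; 8-point 4-parameter IC50.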

[2] = target: T2, recombinant human MAO-B (monoamine oxidase-B) (Homo sapiens, UniProt P27338); assay: Activity on recombinant human MAO-B, method similar to the VAP-1 assay; conditions: substrate 1 mM benzylamine; read-out: Inhibitory Activity (IC50, nM) MAO-B
T2 construct: purchased Sigma-Aldrich
T2 sequence (P27338 1-520): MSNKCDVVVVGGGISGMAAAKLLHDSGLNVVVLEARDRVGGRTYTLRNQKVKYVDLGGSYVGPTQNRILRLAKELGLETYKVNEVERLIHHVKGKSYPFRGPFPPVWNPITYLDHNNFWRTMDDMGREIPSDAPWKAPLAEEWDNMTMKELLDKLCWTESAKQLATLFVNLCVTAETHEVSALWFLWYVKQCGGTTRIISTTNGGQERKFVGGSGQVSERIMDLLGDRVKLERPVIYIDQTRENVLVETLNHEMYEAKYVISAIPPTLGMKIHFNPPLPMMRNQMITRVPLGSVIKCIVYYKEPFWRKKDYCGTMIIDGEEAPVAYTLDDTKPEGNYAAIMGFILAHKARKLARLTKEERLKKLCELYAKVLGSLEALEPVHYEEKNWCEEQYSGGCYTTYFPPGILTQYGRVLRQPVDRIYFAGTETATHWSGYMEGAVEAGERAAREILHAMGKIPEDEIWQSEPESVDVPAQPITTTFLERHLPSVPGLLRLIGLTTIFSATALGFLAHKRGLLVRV
Method in brief: as §1

recombinant human VAP-1 = target: T3, recombinant human VAP-1 (Homo sapiens, UniProt Q16853); assay: Activity on recombinant human VAP-1, HRP-coupled Amplex Red hydrogen peroxide assay; conditions: substrate 1 mM benzylamine; compound incubated with enzyme at 37° C. for 30 minutes; pH 7.4; read-out: Inhibitory Activity (IC50, nM) human VAP-1
T3 construct: purchased R&D systems
T3 sequence (Q16853 1-763): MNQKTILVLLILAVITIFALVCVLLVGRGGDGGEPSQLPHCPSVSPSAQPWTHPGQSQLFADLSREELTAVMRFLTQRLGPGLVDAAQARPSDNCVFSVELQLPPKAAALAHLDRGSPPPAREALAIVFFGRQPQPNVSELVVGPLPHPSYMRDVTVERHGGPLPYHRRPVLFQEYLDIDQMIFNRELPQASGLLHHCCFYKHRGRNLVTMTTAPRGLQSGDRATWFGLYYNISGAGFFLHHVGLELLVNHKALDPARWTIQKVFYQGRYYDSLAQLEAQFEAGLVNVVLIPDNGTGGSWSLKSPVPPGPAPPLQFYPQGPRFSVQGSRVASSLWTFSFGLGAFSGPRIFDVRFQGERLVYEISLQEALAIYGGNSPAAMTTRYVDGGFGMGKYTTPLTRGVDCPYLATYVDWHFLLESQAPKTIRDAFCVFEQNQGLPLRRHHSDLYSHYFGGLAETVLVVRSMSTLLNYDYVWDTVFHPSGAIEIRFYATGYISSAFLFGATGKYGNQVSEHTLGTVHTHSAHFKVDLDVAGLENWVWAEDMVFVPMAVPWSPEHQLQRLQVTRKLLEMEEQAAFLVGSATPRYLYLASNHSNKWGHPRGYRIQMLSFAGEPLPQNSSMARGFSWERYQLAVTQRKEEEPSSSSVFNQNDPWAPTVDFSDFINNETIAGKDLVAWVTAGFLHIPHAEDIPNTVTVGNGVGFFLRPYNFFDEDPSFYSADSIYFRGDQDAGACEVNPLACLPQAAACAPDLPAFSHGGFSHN
Method in brief: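 Enzyme in 50 mM sodium phosphate pH 7.4 preincubated with compound 30 min at 37 °C, then 1 mM benzylamine, 200 µM Amplex Red and 1 U/mL HRP added. H2O2-derived resorufin fluorescence (ex 544/em 590 nm) followed over 1–2 h; signal-rate decrease versus DMSO control, 8-point curve, four-parameter logistic IC50.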

[3] = target: T4, recombinant human DAO (diamine oxidase) (Homo sapiens, UniProt P19801); assay: Activity on recombinant human DAO, method similar to the VAP-1 assay; conditions: substrate 1 mM putrescine; read-out: Inhibitory Activity (IC50, nM) DAO
T4 construct: purchased R&D systems
T4 sequence (P19801 20-751): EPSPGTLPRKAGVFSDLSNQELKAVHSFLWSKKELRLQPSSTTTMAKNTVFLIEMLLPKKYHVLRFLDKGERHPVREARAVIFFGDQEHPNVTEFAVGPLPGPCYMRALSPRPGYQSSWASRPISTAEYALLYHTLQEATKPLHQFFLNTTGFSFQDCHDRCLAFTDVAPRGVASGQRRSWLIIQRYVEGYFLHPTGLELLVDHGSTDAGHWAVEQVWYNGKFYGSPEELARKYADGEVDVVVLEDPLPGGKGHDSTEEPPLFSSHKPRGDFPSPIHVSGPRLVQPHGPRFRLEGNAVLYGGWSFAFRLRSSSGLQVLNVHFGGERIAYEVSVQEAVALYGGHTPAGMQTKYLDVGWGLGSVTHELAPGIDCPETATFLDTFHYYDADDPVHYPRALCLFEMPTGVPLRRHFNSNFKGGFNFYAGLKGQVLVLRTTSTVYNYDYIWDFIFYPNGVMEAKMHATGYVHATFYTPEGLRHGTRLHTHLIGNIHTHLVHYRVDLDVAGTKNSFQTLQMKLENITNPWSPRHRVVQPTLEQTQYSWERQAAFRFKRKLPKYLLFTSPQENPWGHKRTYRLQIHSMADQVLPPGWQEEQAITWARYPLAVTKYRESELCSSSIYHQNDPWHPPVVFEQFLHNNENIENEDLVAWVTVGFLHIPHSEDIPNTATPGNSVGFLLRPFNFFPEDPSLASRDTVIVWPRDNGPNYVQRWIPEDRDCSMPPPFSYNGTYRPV
Method in brief: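 Inhibition of recombinant human diamine oxidase (DAO, R&D systems) was assessed by the same approach as the VAP-1 assay, using 1 mM putrescine as substrate. Hydrogen peroxide formed was detected through an HRP-coupled Amplex Red reaction yielding fluorescent resorufin, read at 544 nm excitation and 590 nm emission. IC50 values came from four-parameter logistic fitting in GraphPad Prism.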

| Structure (SMILES) | IC50 [1] [nM] | IC50 [2] [nM] | IC50 (recombinant human VAP-1) [nM] | IC50 [3] [nM] |
| --- | --- | --- | --- | --- |
| NC/C(=C/F)Cn1ncn(Cc2ccc(-c3ccc4c(c3)OCO4)s2)c1=O [Example 60, 2-[(2Z)-2-(aminomethyl)-3-fluoroprop-2-en-1-yl]-4-[5-(1,3-benzodioxol-5-yl)thiophen-2-yl]methyl-2,4-dihydro-3H-1,2,4-triazol-3-one hydrochloride] | > 10000 | < 100 | 1.8 | 3000 |
| NC/C(=C/F)Cn1ncn(Cc2ccc(-c3ccc4nonc4c3)s2)c1=O [Example 61, 2-[(2Z)-2-(aminomethyl)-3-fluoroprop-2-en-1-yl]-4-[5-(2,1,3-benzooxadiazol-5-yl)thiophen-2-yl]methyl-2,4-dihydro-3H-1,2,4-triazol-3-one hydrochloride] | 16000 | 10.1 | 1.1 | < 100 |
| NC/C(=C\F)Cn1ncn(Cc2ccc(-c3ccc4ocnc4c3)s2)c1=O [Example 62, 2-[(2E)-2-(aminomethyl)-3-fluoroprop-2-en-1-yl]-4-[5-(1,3-benzooxazol-5-yl)thiophen-2-yl]methyl-2,4-dihydro-3H-1,2,4-triazol-3-one hydrochloride] | 2100 | 310 | 3.7 | 530 |
| NC/C(=C\F)Cn1ncn(Cc2ccc(-c3ccc4[nH]ncc4c3)s2)c1=O [Example 63, 2-[(2E)-2-(aminomethyl)-3-fluoroprop-2-en-1-yl]-4-[5-(1H-indazol-5-yl)thiophen-2-yl]methyl-2,4-dihydro-3H-1,2,4-triazol-3-one hydrochloride] | 67000 | 380 | 0.9 | 1200 |
| NC/C(=C\F)Cn1ncn(Cc2ccc(-c3cnc4scnc4c3)s2)c1=O [Example 64, 2-[(2E)-2-(aminomethyl)-3-fluoroprop-2-en-1-yl]-4-[5-([1,3]thiazolo[5,4-b]pyridin-6-yl)thiophen-2-yl]methyl-2,4-dihydro-3H-1,2,4-triazol-3-one hydrochloride] | 6700 | 2200 | 0.7 | 110 |
| NC/C(=C\F)Cn1ncn(Cc2ccc(-c3cnc4[nH]ccc4c3)s2)c1=O [Example 65, 2-[(2E)-2-(aminomethyl)-3-fluoroprop-2-en-1-yl]-4-[5-(1H-pyrrolo[2,3-b]pyridin-5-yl)thiophen-2-yl]methyl-2,4-dihydro-3H-1,2,4-triazol-3-one hydrochloride] | > 100000 | 3400 | 0.7 | 1500 |
| NC/C(=C\F)Cn1ncn(Cc2ccc(-c3ccn4ncnc4c3)s2)c1=O [Example 66, 2-[(2E)-2-(aminomethyl)-3-fluoroprop-2-en-1-yl]-4-[5-([1,2,4]triazolo[1,5-a]pyridin-7-yl)thiophen-2-yl]methyl-2,4-dihydro-3H-1,2,4-triazol-3-one hydrochloride] | > 10000 | 1200 | 0.5 | 340 |
| NC/C(=C\F)Cn1ncn(Cc2ccc(-c3ccc4c(c3)C(=O)NC4)s2)c1=O [Example 67, 6-[5-(1-[(2E)-2-(aminomethyl)-3-fluoroprop-2-en-1-yl]-5-oxo-1,5-dihydro-4H-1,2,4-triazol-4-ylmethyl)thiophen-2-yl]-2,3-dihydro-1H-isoindol-1-one hydrochloride] | > 100000 | 11000 | 0.3 | 1200 |
| NC/C(=C\F)Cn1ncn(Cc2ccc(-c3ccc4c(c3)CNC4=O)s2)c1=O [Example 68, 5-[5-(1-[(2E)-2-(aminomethyl)-3-fluoroprop-2-en-1-yl]-5-oxo-1,5-dihydro-4H-1,2,4-triazol-4-ylmethyl)thiophen-2-yl]-2,3-dihydro-1H-isoindol-1-one hydrochloride] | > 100000 | 1600 | 0.4 | 1000 |
